From ChEMBL document CHEMBL5233249, “Recent advancements in the development of heterocyclic anti-inflammatory agents” (Eur J Med Chem, 2020)
Blank lines part the entries; values can stand above or below the compound they belong to.

Tests used:
[1] = system: Mus musculus; assay: Anti-inflammatory activity against Carrageenan-induced paw edema in mouse model assessed as reduction in volume of edema at 100 mg/kg measured after 24 hrs relative to control; assay type: functional; design: scale not given: the % may be the effect or the level left
[2] = system: Rattus norvegicus; assay: Anti-inflammatory activity in Carrageenan-induced paw edema in PO dosed rat model at 30 mg/kg measured after 4 hrs relative to control; assay type: functional
[3] = system: Rattus norvegicus; assay: Anti-inflammatory activity against formalin-induced foot paw edema in PO dosed rat at 10 mg/kg assessed as inhibition of edema measured after 4 hr relative to control; assay type: functional
[4] = system: Rattus norvegicus; assay: Anti-inflammatory activity in Carrageenan-induced rat paw edema in Wistar rat assessed as reduction in inhibition of edema measured after 4 hrs relative to control; assay type: functional; design: scale not given: the % may be the effect or the level left
[5] = Anti-inflammatory activity assessed using bovine serum albumin/egg albumin proteins assessed as protein denaturation measured at 95 degC for 20 mins by measuring turbidity by UV-Vis spectrophotometer; assay type: functional
[6] = system: Rattus norvegicus; assay: Anti-inflammatory activity against Carrageenan-induced paw edema in PO dosed Wistar albino rat assessed as inhibition of edema measured after 3 hr relative to control; assay type: functional; design: scale not given: the % may be the effect or the level left
[7] = system: Mus musculus; assay: Anti-inflammatory activity against Carrageenan-induced paw edema in mouse model assessed as reduction of edema at 50 mg/kg measured after 4 hrs relative to control; assay type: functional; design: scale not given: the % may be the effect or the level left
[8] = system: Erythrocyte; assay: Anti-inflammatory activity in human red blood cells assessed as stabilization of cell membrane; assay type: functional, cell-based
[9] = system: Mus musculus; assay: Anti-inflammatory activity against Carrageenan-induced paw edema in mouse model assessed as inhibition of edema at 100 mg/kg measured after 3 hrs relative to control; assay type: functional; design: scale not given: the % may be the effect or the level left
[10] = biological target: T1, Bifunctional epoxide hydrolase 2 (Homo sapiens, UniProt P34913); assay: Inhibition of human recombinant sEH
T1 sequence (P34913 whole entry): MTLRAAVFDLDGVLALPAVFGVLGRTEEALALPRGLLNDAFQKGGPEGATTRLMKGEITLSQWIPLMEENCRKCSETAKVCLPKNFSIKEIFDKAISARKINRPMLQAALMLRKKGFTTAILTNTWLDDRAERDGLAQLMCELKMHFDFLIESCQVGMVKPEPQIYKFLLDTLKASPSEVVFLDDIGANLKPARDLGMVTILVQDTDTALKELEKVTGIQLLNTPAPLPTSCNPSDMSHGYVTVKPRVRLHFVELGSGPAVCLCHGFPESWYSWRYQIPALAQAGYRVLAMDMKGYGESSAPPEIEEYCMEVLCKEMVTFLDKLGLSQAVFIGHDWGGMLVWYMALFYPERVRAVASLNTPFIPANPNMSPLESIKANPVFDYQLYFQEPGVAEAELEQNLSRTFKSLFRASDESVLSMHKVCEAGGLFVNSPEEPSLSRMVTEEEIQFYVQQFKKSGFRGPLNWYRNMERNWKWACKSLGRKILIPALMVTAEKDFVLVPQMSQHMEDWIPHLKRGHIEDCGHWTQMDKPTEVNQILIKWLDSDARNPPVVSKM

[11] = system: RAW264.7; assay: Anti-inflammatory activity in mouse RAW264.7 cells assessed as LPS-induced reduction in decreased […] level of IL-1beta measured after 24 hrs; assay type: functional
[12] = biological target: T2, Prostaglandin G/H synthase 1 (Ovis aries, UniProt P05979); assay: Inhibition of ovine COX-1 by EIA method
T2 sequence (P05979 whole entry): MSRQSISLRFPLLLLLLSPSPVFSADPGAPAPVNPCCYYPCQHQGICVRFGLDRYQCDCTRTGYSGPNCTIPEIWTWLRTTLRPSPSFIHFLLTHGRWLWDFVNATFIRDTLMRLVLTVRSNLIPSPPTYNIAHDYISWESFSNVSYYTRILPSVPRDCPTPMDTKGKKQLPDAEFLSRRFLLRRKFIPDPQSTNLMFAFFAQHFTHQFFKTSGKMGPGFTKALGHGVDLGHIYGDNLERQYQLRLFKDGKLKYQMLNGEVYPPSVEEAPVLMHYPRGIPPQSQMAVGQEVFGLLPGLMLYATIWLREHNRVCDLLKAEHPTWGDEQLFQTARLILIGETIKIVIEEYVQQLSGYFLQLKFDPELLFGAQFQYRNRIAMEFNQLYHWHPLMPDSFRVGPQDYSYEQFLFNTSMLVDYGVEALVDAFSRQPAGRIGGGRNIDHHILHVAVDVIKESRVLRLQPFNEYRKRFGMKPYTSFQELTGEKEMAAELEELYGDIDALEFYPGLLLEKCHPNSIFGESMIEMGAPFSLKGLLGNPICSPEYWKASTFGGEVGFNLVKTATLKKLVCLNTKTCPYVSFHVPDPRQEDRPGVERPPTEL

[13] = system: Rattus norvegicus; assay: Anti-inflammatory activity in Carrageenan-induced paw edema in Wistar albino rat assessed as inhibition of paw edema measured after 3 hr relative to control; assay type: functional; design: Activity: scale not given: the % may be the effect or the level left

SMILES: c1ccc(N2CCN(c3cncc(-c4nc5ccccc5[nH]4)n3)CC2)cc1
- Activity [1]: 54.31%

- IC50 [5]: 54.65 µg/mL
- EC50 [8]: 11.7 µg/mL
SMILES: O=C([O-])Cc1ccccc1Nc1c(Cl)cccc1Cl.[Na+] [DICLOFENAC SODIUM]
- inhibition in vivo at 30 mg/kg [2]: 93%
- inhibition in vivo at 10 mg/kg [3]: 92.9%
- Activity [4]: 78.05%
- Activity [6]: 60.82%
- Activity [7]: 76.25%

- IC50 [10]: 0.7 µM
SMILES: O=C(O)c1ccc(CSc2nc3cc(F)c(-c4ncn[nH]4)cc3[nH]2)cc1
- Activity [9]: 66.3%

- IC50 [12]: 4.15 µM
SMILES: COc1c2occc2c(OC)c2c(C)c(/C(=N/c3cc(N4CCNCC4)nc(N4CCNCC4)n3)N3CCNCC3)oc12
- Activity [11]: 30 pg/mL
- Activity [13]: 68%
